# Source: patent publication US6596497B1, “Screening of antiviral compounds targeted to the HIV-1 gp41 core structure” (New York Blood Center, Inc., priority 1999, dated 2003)
# Experiments:
# [1] = target: T1, N-36/C-34 complex (HIV-1 gp41 core) (Human immunodeficiency virus type 1 group M subtype B, UniProt P04578); experiment: biochemical; type: binding; settings: for IC50 ± SD NC-1 binding: N-36 2 μM preincubated with compound, then C-34 2 μM; for Inhibitory activity on complex formation by N-36 and C-34 (in words): no concentration stated
# T1 construct: Peptides derived from the NHR and CHR regions of gp41, designated N- and C-peptides; made in house; host or cells: chemical synthesis (solid-phase FMOC)
# Method: For detection of peptide complexes, a direct and a sandwich ELISA were used. In the direct ELISA, the N- and C-peptides were mixed at equimolar concentration in PBS and diluted in coating buffer. Then, the peptide complexes were directly coated onto the wells of microplate. In the sandwich ELISA, the plate was coated with IgG (10 μg/ml) purified from rabbit antisera directed against N36(L6)C34, followed by the addition of the peptide complexes formed by mixing N- and C-peptides in PBS in equimolar concentrations. To screen for antiviral agents, compounds were pre-incubated with N-peptides at 37° C. for 30 minutes before mixing with the C-peptides. The binding of the peptide complexes to the antibodies was then detected as described above.
# The percentage of inhibition by the compounds of the binding of NC-1 to the peptide complexes was calculated as described in Jiang, S., K. Lin, and A. R. Neurath, 1991, “Enhancement of human immunodeficiency virus type-1 (HIV-1) infection by antisera to peptides from the envelope glycoproteins gp120/gp41”, J. Exp. Med., 174, 1557-1563.
# A sandwich ELISA was established to screen for compounds that interfere with the formation of the N-36/C-34 complex. N-36 (2 μM) was preincubated with compounds at graded concentrations at 37° C. for 30 minutes, followed by the addition of C-34 (2 μM). After incubation at 37° C. for 30 minutes, the mixture was added to wells of a 96-well polystyrene plate (Immulon I, Dynatech Laboratories, Inc., Chantilly, Va.) which were precoated with IgG (10 μg/ml) purified from rabbit antisera directed against N36(L6)C34. […] Absorbance at 450 nm (A450) was read using an ELISA reader (Dynatech Laboratories, Inc., Chantilly, Va.). The percentage of inhibition by the compounds of the binding of NC-1 to the peptide complexes was calculated as described in Jiang S., K. Lin, and A. R. Neurath, 1991, “Enhancement of human immunodeficiency virus type-1 (HIV-1) infection by antisera to peptides from the envelope glycoproteins gp120/gp41”, J. Exp. Med., 174, 1557-1563. The concentration for 50% inhibition (IC50) was calculated using a computer program, designated Calcusyn (Chou, T.-C., 1991, “The median-effect principle and the combination index for quantitation of synergism and antagonism. In Synergism and Antagonism in Chemotherapy”, T.-C. Chou and D. C. Rideout, editors, Academic Press, San Diego, 61-102).
# [2] = system: H9/HIV-1IIIB cells and MT-2 cells; experiment: cells; type: cell-based; settings: for IC50 ± SD Cell fusion: 37° C., 2 hours; for Inhibitory activity on HIV-1-mediated cell fusion (in words): no concentration stated
# Method: A dye transfer assay was used for detection of HIV-1-mediated cell fusion as described in Jiang et al., Nature, 365, 113 (1993). H9/HIV-1IIIB cells were labeled with a fluorescent reagent, 2′,7′-bis-(2-carboxyethyl)-5-and-6-carboxyfluorescein acetoxyethyl ester (BCECF-AM), (Molecular Probes, Inc., Eugene, Oreg.) and incubated with MT-2 cells (ratio=1:10) in a 96-well plate at 37° C. for 2 hours in the presence or absence of peptides or compounds tested. The fused and unfused BCECF-labeled HIV-1 infected cells were counted under an inverted fluorescence microscope (Zeiss, Germany) with an eyepiece micrometer discs. The percentage of inhibition of cell fusion was calculated as described in Jiang et al., 1993, Nature, 365, 113.
# A dye transfer assay was used for detection of HIV-1 mediated cell fusion as described in Jiang, S., K. Lin, N. Strick, and A. R. Neurath, 1993, Inhibition of HIV-1 infection by a fusion domain binding peptide from HIV-1 envelope glycoprotein gp41, Biochem. Biophys. Res. Commun., 195, 533-538.
# H9/HIV-1IIIB cells were labeled with a fluorescent reagent, 2′,7′-bis-(2-carboxyethyl)-5-and-6-carboxyfluorescein acetoxyethyl ester (BCECF-AM) (Molecular Probes, Inc., Eugene, Oreg.) and then incubated with MT-2 cells (ratio=1:10) in 96-well plates at 37° C. for 2 hours in the presence or absence of the compounds tested. The fused and unfused BCECF-labeled HIV-1 infected cells were counted under an inverted fluorescence microscope (Zeiss, Germany) with an eyepiece micrometer disc. The percentage of inhibition of cell fusion and the IC50 values were calculated as described in Jiang et al., (1993), Biochem. Biophys. Res. Commun., 195, 533-538.
# [3] = target: T2, preformed N36/C34 complex (Human immunodeficiency virus type 1 group M subtype B, UniProt P04578); experiment: Control ELISA: NC-1 binding to preformed complex in the presence of compound; set-up: species or system HIV-1; settings: different concentrations of compound
# T2 construct: Peptides derived from the NHR and CHR regions of gp41, designated N- and C-peptides; made in house; host or cells: chemical synthesis (solid-phase FMOC)
# Description: The position might be taken that ADJ-J1, selected by a sandwich ELISA, may not block the complex formation by N- and C-peptides, but instead block NC-1 binding to the complex, either due to its association with MAb NC-1 or with the N36/C34 complex. The first possibility was excluded, since the antibody-coated wells of the plastic plates were extensively washed after addition of the mixture of N36, ADS-J1 and C34 and before. addition of MAb NC-1, excluding the presence of unbound ADS-J1, which could bind to MAb NC-1. To determine whether or not ADS-J1 binds to the surface of the N36/C34 complex and blocks NC-1 binding, a control experiment was conducted in which the complex In was preformed by mixing N36 and C34 at equimolar concentrations and captured to the wells of plastic plates coated with rabbit antibody directed against N36/C34 complex. Then, the binding of MAb NC-1 to the preformed complex in the presence of ADS-J1 at different concentrations was determined.
# MT-2 cells = experiment: In vitro cytotoxicity, XTT; type: cell-based
# Method: The in vitro cytotoxicity for MT-2 cells of the compounds was determined in 96-well plates using the XTT dye to measure cell viability in the absence of virus. Ten μl of 5% TRITON X-100 were added to the wells corresponding to positive controls (“P”) and 10 μl medium was added to wells corresponding to negative controls (“N”). The percent cytotoxicity was calculated using the following formula: % cytotoxicity=[(E−N)/(P−N)]×100%, wherein “E” represents experimental data in the presence of compounds. The concentration corresponding to 50% cytotoxicity (CC50) for MT-2 cells was calculated using the Calcusyn computer program. The selectivity index (S.I.=CC50/IC50) for each compound was calculated.
# HIV-1IIIB = experiment: HIV-1-mediated cytopathic effect (CPE), XTT; type: cell-based; settings: for Selective Index (S.I.) = CC50/IC50 for CPE / IC50 ± SD CPE: MT-2 cells; for IC50 ± SD CPE: sixth day post infection
# Method: The inhibitory activity of the compounds was determined by a calorimetric method based on protection of cells against HIV-1-mediated CPE, as described in Jiang et al., (1991), J. Exp. Med., 174, 1557-1563. 1×10^4 MT-2 cells in 96-well plates were infected with diluted HIV-1IIIB in 200 μl RPMI 1640 medium containing 10% FBS in the presence of compounds at graded concentrations. After 1 hour, 24 hours and 4 days, half of the culture media were changed. On the sixth day post infection, an indicator, XTT tetrazolium dye (1 mg/ml; 50 μl/well; PolySciences, Inc., Warrington, Pa.), was added to the cells. After 4 hours, the soluble intracellular formazan was determined calorimetrically at 450 nm. The percent of inhibition of CPE and the IC50 values were calculated as described above.
# T1 sequence (P04578 546-581, one chain of several): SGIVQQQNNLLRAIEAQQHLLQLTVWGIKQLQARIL
# T2 sequence (P04578 546-581, one chain of several): as above
Molecule,IC50 ± SD NC-1 binding [1] [µg/mL],"Inhibition of NC-1 detectable complex formation by N-36 and C-34 (in words) ([1]; compounds at 10 μg/ml, FIG. 13)",Inhibitory activity on complex formation by N-36 and C-34 (in words) [1],Inhibitory activity on complex formation by N-36 and C-34 (in words) ([1]; listed as ADJ-1),IC50 ± SD Cell fusion [2] [µg/mL],"Inhibition of HIV-1-mediated cell fusion (in words) ([2]; compounds at 10 μg/ml, FIG. 13)",Inhibitory activity on HIV-1-mediated cell fusion (in words) [2],Inhibitory activity on HIV-1-mediated cell fusion (in words) ([2]; listed as ADJ-1),Blocking of NC-1 binding to the preformed N36/C34 complex [3],CC50 ± SD (MT-2 cells) [µg/mL],Selective Index (S.I.) = CC50/IC50 for CPE (HIV-1IIIB),IC50 ± SD CPE (HIV-1IIIB) [µg/mL],Inhibitory activity on HIV-1-mediated CPE (in words) (HIV-1IIIB; no concentration stated)
"7-[6-phenylamino-4-[4-[(3,5-disulfo-8-hydroxynaphthyl)azo]-2-methoxy-5-methylphenylamino]-1,3,5-triazine-2-yl]-4-hydroxy-3-[(2-methoxy-5-sulfophenyl)azo]-2-naphthalene sulfonic acid [ADS-J1]",0.73 ± 0.08,completely inhibited,promising inhibitory activity,most potent inhibitory activity,4.95 ± 1.31,completely inhibited,promising inhibitory activity,most potent inhibitory activity,unable to block,292.16 ± 2.27,35.24,8.29 ± 1.13,promising inhibitory activity
Cc1ccc(C(=O)Nc2cccc(C(=O)N/N=C/c3ccc(Br)cc3)c2)cc1 [ADS-J3],>100,,,,>100,,,,,24.91 ± 2.62,≦1.00,>100,
COc1ccc2c(c1)CCC/C2=N\OC(=O)Nc1ccccc1-c1ccccc1 [ADS-J8],>100,,,,>100,,,,,46.83 ± 4.93,≦1.00,>100,
